Measured values published in patent US20250115569A1, “SULFONAMIDE COMPOUNDS FOR THE TREATMENT OF NEUROLOGICAL CONDITIONS” (LARIO THERAPEUTICS LIMITED, priority 2021, published 2025).

How the values were obtained:
Cav2.3 [1] = target: T1, Cav2.3 (Homo sapiens, UniProt Q15878); experiment: Whole-cell patch clamp assay (QPatch) in HEK-293 T-Rex/Kir2.1/Cav2.3e-β4-α2δ1 cells; type: cell-based; settings: QPatch 16X, room temperature, mean ± S.E, read-out: Cav2.3 (pIC50) (converted)
Protocol: HEK-293 T-Rex/Kir2.1/Cav2.3e-β4-α2δ1 cells were seeded 96 hours before experiment and doxycycline at 0.2 μg/mL was added 24 hours before experiment. Just before the experiments cells were washed twice with D-PBS w/o Ca^2+/Mg^2+ and gently detached from the flask with Detachin. Cells were then re-suspended in the suspension solution (25 mL EX-CELL ACF CHO medium; 0.25 mL of 100× Penicillin/Streptomycin) and placed on the Automated Patch-clamp platform (QPatch 16X).
Standard whole-cell voltage clamp experiments were performed at room temperature using the single hole technology and the following intracellular and extracellular solutions (ICS and ECS, respectively) were used. ICS (mM): CsF 60, CsCl 50, NaCl 10, EGTA 20, BAPTA 5, HEPES 10, NaGTP 0.3, MgATP 5 (pH 7.2; ECS (mM): NMDG-Cl 120, BaCl2 20, HEPES 10, EGTA 7 (pH 7.4). After establishment of the seal and the passage in the whole-cell configuration, the Cav2.3 dependent current was evoked by challenging the cells with the following voltage protocol: the plasma membrane was held at −80 mV then a 50 ms-long depolarizing pulse at 0 mV, followed by a 50 ms-long hyperpolarizing pulse at −100 mV were applied and finally the plasma membrane was held back to −80 mV. This voltage protocol was applied every 10 seconds. Cav2.3 dependent current was first measured in control condition (vehicle, 0.1% DMSO), in the presence of increasing concentration of the compound under investigation and finally SNX 482 was added to fully block any R-type Cav2.3 dependent current.
For data collection, the Sophion proprietary software was used while the analysis was performed off-line using Excel and GraphPad Prism. The inward current (Area Under Curve) measured during each depolarizing pulse was normalized to cell membrane capacitance (Cm) to obtain the average inward current density in each condition (control, compound under investigation and SNX 482). Then, the inhibitory effect of the compound under investigation was evaluated as % of the remaining inward current, normalized to the internal control. […] All data were expressed as mean±S.E

Human Cav2.3 channel = Human Cav2.3 channel calcium-influx assay; type: cell-based; settings: Fluo8 fluorescence, HEK-293 T-Rex/Kir2.1/Cav2.3e cells, without pluronic acid
Procedure, shortened: (§1)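 HEK-293 T-Rex/Kir2.1 cells with doxycycline (0.2 μg/mL)-inducible Cav2.3e plus Cavβ4-α2δ1, loaded with Fluo8 NW in 0 mM K+ Tyrode's. Compounds (8 points, top 30 μM, half-log, 0.3% final DMSO, n=4) preincubated 3 min at RT, then depolarized with 20 mM KCl/2 mM CaCl2 (final); fluorescence read 130 s.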

Cav2.3 [2] = target: T1, Cav2.3; experiment: Human Cav2.3 channel calcium-influx assay; type: cell-based; settings: Fluo8 fluorescence, HEK-293 T-Rex/Kir2.1/Cav2.3e cells, without pluronic acid, read-out: Cav2.3 (pIC50) (converted)
Procedure, shortened: as §1

[3] = target: R-type calcium current in substantia nigra dopamine neurons (Mus musculus (Mouse), UniProt Q61290); experiment: Ex vivo whole cell patch clamp in substantia nigra dopamine neurons, mouse brain slice; type: cell-based; settings: concentrations of 10 μM
Chain of R-type calcium current in substantia nigra dopamine neurons (Q61290 whole entry): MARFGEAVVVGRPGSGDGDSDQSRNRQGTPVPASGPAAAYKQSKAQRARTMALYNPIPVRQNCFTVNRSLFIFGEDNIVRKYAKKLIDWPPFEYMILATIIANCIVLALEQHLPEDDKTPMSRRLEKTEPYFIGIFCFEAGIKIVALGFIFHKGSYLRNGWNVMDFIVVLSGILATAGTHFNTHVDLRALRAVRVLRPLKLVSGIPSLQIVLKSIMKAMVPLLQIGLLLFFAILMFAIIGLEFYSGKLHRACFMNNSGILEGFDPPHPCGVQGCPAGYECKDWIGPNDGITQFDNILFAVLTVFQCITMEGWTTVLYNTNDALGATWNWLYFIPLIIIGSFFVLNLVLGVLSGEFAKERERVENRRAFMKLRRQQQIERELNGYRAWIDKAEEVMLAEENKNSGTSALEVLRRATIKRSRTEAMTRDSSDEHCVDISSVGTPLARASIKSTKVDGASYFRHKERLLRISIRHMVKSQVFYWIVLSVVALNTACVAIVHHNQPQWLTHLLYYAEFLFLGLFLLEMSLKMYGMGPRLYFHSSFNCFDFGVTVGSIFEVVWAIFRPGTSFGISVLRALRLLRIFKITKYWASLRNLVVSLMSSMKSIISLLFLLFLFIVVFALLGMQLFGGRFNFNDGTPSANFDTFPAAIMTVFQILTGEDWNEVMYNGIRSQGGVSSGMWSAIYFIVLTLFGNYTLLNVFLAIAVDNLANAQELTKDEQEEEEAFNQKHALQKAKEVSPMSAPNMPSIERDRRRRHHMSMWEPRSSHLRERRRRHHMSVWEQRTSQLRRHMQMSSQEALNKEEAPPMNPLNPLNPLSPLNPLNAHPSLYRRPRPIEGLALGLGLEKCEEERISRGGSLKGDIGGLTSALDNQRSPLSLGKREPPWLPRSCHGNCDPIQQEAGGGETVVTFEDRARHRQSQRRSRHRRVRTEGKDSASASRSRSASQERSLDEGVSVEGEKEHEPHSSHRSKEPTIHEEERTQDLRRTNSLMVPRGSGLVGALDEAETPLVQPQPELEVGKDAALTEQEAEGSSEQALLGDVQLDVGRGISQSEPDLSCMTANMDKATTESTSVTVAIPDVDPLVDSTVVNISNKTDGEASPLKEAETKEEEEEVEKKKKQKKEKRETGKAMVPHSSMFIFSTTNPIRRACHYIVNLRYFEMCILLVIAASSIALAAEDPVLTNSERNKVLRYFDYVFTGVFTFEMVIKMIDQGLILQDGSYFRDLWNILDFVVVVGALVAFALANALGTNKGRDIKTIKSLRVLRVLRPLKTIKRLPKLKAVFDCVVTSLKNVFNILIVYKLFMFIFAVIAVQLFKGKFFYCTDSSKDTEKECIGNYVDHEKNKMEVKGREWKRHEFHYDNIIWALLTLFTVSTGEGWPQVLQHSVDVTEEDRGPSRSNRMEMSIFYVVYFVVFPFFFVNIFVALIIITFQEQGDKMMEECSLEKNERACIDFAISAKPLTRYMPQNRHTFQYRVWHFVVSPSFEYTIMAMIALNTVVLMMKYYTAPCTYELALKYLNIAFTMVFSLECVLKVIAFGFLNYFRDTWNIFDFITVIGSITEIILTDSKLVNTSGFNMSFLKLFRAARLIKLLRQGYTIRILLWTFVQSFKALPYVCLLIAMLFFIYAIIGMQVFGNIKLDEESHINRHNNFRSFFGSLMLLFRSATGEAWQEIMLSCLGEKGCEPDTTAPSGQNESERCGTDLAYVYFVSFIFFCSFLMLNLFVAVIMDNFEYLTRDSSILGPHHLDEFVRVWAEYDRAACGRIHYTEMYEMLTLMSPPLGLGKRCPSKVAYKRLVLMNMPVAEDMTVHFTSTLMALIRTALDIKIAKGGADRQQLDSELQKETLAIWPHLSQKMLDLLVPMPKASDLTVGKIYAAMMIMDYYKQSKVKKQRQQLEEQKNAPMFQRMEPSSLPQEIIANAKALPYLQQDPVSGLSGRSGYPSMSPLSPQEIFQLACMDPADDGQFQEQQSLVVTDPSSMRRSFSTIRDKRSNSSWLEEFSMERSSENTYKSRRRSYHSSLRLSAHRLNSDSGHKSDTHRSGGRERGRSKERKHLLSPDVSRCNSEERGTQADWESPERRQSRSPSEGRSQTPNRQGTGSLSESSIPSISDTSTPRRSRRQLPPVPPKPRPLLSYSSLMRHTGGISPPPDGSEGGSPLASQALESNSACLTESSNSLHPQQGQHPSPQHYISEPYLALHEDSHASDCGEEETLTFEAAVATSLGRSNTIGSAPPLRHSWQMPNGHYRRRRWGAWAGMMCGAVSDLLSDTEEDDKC
Protocol: Compounds of the invention were tested on R-type calcium current with whole cell patch clamp electrophysiology in substantia nigra dopamine neurons in an ex vivo brain slice preparation according to the methods described in Siller et al., Elife, 11:e67464 (2022) https://doi.org/i0.7554/eLife.67464.

MES model of epilepsy = experiment: Maximal electroshock stimulation model (MES) in mouse; type: in vivo; settings: 1.5 mg/kg, oral administration
Protocol: Compounds of the invention were tested in an in vivo model of epilepsy, the MES model in mouse, according to the method described in Kehne et al, Neurochemistry Research 42:1894-1903 (2017) 1 https://doi.org/10.1007/s11064-017-2275-z.

T1 sequence (Q15878 whole entry, looked up): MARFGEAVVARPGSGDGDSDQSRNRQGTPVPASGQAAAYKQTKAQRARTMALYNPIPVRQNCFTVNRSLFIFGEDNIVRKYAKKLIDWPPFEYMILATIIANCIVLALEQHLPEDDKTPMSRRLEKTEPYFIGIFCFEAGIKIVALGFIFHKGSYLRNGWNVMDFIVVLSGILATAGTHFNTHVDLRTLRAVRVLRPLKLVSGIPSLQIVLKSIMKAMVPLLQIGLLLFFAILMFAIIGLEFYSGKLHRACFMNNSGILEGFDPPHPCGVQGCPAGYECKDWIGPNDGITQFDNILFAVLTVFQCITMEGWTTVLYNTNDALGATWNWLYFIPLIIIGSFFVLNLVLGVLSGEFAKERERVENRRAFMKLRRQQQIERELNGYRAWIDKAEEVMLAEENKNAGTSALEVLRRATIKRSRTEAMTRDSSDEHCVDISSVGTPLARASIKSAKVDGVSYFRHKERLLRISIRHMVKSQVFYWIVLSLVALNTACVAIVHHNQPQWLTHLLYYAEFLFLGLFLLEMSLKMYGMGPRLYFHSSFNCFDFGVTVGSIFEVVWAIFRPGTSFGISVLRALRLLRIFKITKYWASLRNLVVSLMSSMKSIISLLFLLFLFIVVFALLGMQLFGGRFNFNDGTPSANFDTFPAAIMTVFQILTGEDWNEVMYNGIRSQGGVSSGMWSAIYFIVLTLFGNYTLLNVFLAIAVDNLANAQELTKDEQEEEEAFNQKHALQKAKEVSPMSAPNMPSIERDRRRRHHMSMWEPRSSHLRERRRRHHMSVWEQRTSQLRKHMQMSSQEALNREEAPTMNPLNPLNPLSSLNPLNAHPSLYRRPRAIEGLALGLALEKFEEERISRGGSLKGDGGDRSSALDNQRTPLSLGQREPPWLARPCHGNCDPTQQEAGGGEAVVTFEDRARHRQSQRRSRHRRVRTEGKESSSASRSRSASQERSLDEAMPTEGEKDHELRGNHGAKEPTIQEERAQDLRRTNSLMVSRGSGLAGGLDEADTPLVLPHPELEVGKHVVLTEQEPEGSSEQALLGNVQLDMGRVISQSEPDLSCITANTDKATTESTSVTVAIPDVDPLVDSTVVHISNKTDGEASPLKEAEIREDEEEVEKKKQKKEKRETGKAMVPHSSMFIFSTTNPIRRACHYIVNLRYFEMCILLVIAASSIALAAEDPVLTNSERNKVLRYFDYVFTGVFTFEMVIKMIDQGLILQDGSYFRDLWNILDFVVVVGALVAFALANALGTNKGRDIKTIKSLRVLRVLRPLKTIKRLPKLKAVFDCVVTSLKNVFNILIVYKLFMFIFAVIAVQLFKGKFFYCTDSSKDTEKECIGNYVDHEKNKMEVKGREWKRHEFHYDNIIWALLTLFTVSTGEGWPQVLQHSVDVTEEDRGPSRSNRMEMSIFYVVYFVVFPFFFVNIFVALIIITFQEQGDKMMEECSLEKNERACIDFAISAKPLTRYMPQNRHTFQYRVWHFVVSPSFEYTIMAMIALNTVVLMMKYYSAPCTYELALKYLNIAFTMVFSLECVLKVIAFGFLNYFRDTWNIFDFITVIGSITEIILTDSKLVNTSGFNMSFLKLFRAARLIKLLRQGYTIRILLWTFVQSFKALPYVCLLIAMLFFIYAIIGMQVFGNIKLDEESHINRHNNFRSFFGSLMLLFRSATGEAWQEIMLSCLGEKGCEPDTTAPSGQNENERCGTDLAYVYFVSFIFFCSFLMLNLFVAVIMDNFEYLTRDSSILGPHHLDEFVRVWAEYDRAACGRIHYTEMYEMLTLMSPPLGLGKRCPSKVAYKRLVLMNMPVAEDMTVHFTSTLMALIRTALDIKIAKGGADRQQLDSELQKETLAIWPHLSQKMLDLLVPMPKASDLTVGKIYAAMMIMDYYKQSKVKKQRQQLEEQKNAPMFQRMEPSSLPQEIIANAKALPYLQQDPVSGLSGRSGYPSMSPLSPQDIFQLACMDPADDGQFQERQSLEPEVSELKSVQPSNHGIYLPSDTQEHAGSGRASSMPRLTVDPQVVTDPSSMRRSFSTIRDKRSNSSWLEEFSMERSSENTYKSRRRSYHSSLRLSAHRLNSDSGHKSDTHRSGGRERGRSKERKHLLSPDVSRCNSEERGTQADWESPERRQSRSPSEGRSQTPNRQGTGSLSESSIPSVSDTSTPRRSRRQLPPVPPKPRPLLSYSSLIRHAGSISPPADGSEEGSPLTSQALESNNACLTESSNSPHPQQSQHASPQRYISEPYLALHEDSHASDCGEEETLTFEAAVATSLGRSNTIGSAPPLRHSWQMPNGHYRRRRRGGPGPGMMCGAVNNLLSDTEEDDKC

CCN([C@H](c1ccc(F)cc1)C(F)(F)F)S(=O)(=O)c1cncc(F)c1 (stereo in doubt) [Example 219, N-ethyl-5-fluoro-N-(2,2,2-trifluoro-1-(4-fluorophenyl)ethyl)pyridine-3-sulfonamide]
IC50 (Cav2.3 [1]): 0.0427 µM

CN(C(c1ccc(F)cc1)C(F)(F)F)S(=O)(=O)c1ccc(C#N)s1 (stereo not drawn) [Example 2, 5-cyano-N-methyl-N-(2,2,2-trifluoro-1-(4-fluorophenyl)ethyl)thiophene-2-sulfonamide]
IC50 (Cav2.3 [1]): 1.48 µM
Cav2.3 (pIC50) (Human Cav2.3 channel): 6.14

CCN([C@@H](c1ccc(F)cc1)C(F)(F)F)S(=O)(=O)c1ccc(C#N)s1 [Example 4, (S)-5-cyano-N-ethyl-N-(2,2,2-trifluoro-1-(4-fluorophenyl)ethyl)thiophene-2-sulfonamide]
IC50 (Cav2.3 [1]): 0.447 µM
Cav2.3 (pIC50) (Human Cav2.3 channel): 5.30

CCN([C@H](c1ccc(F)cc1)C(F)(F)F)S(=O)(=O)c1ccc(C#N)s1 [Example 5, (R)-5-cyano-N-ethyl-N-(2,2,2-trifluoro-1-(4-fluorophenyl)ethyl)thiophene-2-sulfonamide]
IC50 (Cav2.3 [1]): 1.35 µM
Cav2.3 (pIC50) (Human Cav2.3 channel): 6.56

CCN([C@@H](c1ccc(F)cc1)C(F)(F)F)S(=O)(=O)c1ccc(C)s1 [Example 9, (S)—N-ethyl-5-methyl-N-(2,2,2-trifluoro-1-(4-fluorophenyl)ethyl)thiophene-2-sulfonamide]
IC50 (Cav2.3 [1]): 1.91 µM
Cav2.3 (pIC50) (Human Cav2.3 channel): 5.16

Cc1ccc(S(=O)(=O)N(C)[C@H](c2ccc(F)cc2)C(F)(F)F)s1 [Example 13, (R)—N,5-dimethyl-N-(2,2,2-trifluoro-1-(4-fluorophenyl)ethyl)thiophene-2-sulfonamide]
IC50 (Cav2.3 [1]): 2.57 µM
Cav2.3 (pIC50) (Human Cav2.3 channel): 5.41

CCN(C(c1ccc(F)cc1)C(F)(F)F)S(=O)(=O)CC1CCOCC1 (stereo not drawn) [Example 20, N-ethyl-1-(tetrahydro-2H-pyran-4-yl)-N-(2,2,2-trifluoro-1-(4-fluorophenyl)ethyl)methanesulfonamide]
IC50 (Cav2.3 [1]): 0.708 µM
IC50 (Cav2.3 [2]): 0.794 µM

CCN([C@H](c1ccc(F)cc1)C(F)(F)F)S(=O)(=O)c1cncc(C#N)c1 [Example 35, (R)-5-cyano-N-ethyl-N-(2,2,2-trifluoro-1-(4-fluorophenyl)ethyl)pyridine-3-sulfonamide]
IC50 (Cav2.3 [1]): 0.0468 µM
activity blocking R-type calcium current [3]: active
Cav2.3 (pIC50) (Human Cav2.3 channel): 7.87
activity in the MES model (MES model of epilepsy): active

CCN([C@H](c1ccc(F)cc1)C(F)(F)F)S(=O)(=O)C1CCOCC1 [Example 63, (R)—N-ethyl-N-(2,2,2-trifluoro-1-(4-fluorophenyl)ethyl)tetrahydro-2H-pyran-4-sulfonamide]
IC50 (Cav2.3 [1]): 0.302 µM
Cav2.3 (pIC50) (Human Cav2.3 channel): 6.92

CN([C@H](c1ccc(C(F)(F)F)cc1)C(F)(F)F)S(=O)(=O)c1cncc(C#N)c1 [Example 68, (R)-5-Cyano-N-methyl-N-(2,2,2-trifluoro-1-(4-(trifluoromethyl)phenyl)ethyl)pyridine-3-sulfonamide]
IC50 (Cav2.3 [1]): 0.0724 µM
IC50 (Cav2.3 [2]): 0.0355 µM

CCN([C@H](c1ccc(F)cc1)C(F)(F)F)S(=O)(=O)c1cnc(C)nc1 [Example 77, (R)—N-ethyl-2-methyl-N-(2,2,2-trifluoro-1-(4-fluorophenyl)ethyl)pyrimidine-5-sulfonamide]
IC50 (Cav2.3 [1]): 0.562 µM
Cav2.3 (pIC50) (Human Cav2.3 channel): 7.01

CCN([C@H](c1ccc(F)cc1)C(F)(F)F)S(=O)(=O)c1cncc(N2CCOCC2)c1 [Example 96, (R)—N-ethyl-5-morpholino-N-(2,2,2-trifluoro-1-(4-fluorophenyl)ethyl)pyridine-3-sulfonamide]
IC50 (Cav2.3 [1]): 0.0676 µM
Cav2.3 (pIC50) (Human Cav2.3 channel): 6.95

CCN(C(c1ccc(F)cc1)C(F)(F)F)S(=O)(=O)c1cncnc1 [Example 133, (R)—N-ethyl-N-(2,2,2-trifluoro-1-(4-fluorophenyl)ethyl)pyrimidine-5-sulfonamide]
IC50 (Cav2.3 [1]): 0.148 µM
Cav2.3 (pIC50) (Human Cav2.3 channel): 7.20

CCN([C@H](c1ccc(F)cc1)C(F)(F)F)S(=O)(=O)c1ccn2ccnc2c1 [Example 136, (R)—N-ethyl-N-(2,2,2-trifluoro-1-(4-fluorophenyl)ethyl)imidazo[1,2-a]pyridine-7-sulfonamide]
IC50 (Cav2.3 [1]): 0.0646 µM
Cav2.3 (pIC50) (Human Cav2.3 channel): 7.50

CN([C@H](c1ccc(Cl)cc1)C(F)(F)F)S(=O)(=O)c1cncc(C#N)c1 [Example 171, (R)—N-(1-(4-chlorophenyl)-2,2,2-trifluoroethyl)-5-cyano-N-methylpyridine-3-sulfonamide]
IC50 (Cav2.3 [1]): 0.132 µM
IC50 (Cav2.3 [2]): 0.0257 µM

CN([C@H](c1ccc(C(F)(F)F)cc1)C(F)(F)F)S(=O)(=O)c1cncnc1 [Example 172, (R)—N-methyl-N-(2,2,2-trifluoro-1-(4-(trifluoromethyl)phenyl)ethyl)pyrimidine-5-sulfonamide]
IC50 (Cav2.3 [1]): 0.295 µM
Cav2.3 (pIC50) (Human Cav2.3 channel): 7.23

CN([C@H](c1ccc(Cl)cc1)C(F)(F)F)S(=O)(=O)c1ccc2nccn2c1 [Example 178, (R)—N-(1-(4-chlorophenyl)-2,2,2-trifluoroethyl)-N-methylimidazo[1,2-a]pyridine-6-sulfonamide]
IC50 (Cav2.3 [1]): 0.38 µM
IC50 (Cav2.3 [2]): 0.178 µM

CN([C@H](c1ccc(Cl)cc1)C(F)(F)F)S(=O)(=O)c1ccn2ncnc2c1 [Example 191, (R)—N-(1-(4-chlorophenyl)-2,2,2-trifluoroethyl)-N-methyl-[1,2,4]triazolo[1,5-a]pyridine-7-sulfonamide]
IC50 (Cav2.3 [1]): 0.457 µM
IC50 (Cav2.3 [2]): 0.145 µM

CN([C@H](c1ccc(Cl)cc1)C(F)(F)F)S(=O)(=O)c1cncc(F)c1 [Example 220, (R)—N-(1-(4-chlorophenyl)-2,2,2-trifluoroethyl)-5-fluoro-N-methylpyridine-3-sulfonamide]
IC50 (Cav2.3 [1]): 0.141 µM
IC50 (Cav2.3 [2]): 0.0302 µM
